Results taken from patent US20100168079A1 (priority 2008, published 2010).

Target: T1, human S1P1 receptors (Homo sapiens, UniProt P21453)
T1 construct: myc (N); expressed in transfected cells; host or cells: HeLa (human cervix carcinoma, ATCC CCL2), HeLa-S1P1/Gα16 cell clone 1
Assay: Human S1P1 Receptor Calcium FLIPR Antagonist Assay (HeLa Gα16 S1P1)
Format: cell-based
Conditions: relative antagonism of Ca2+ signal evoked by probing agonist GNF-AC-1 at EC80; HeLa-S1P1/Gα16 cells
Method: Human S1P1 Receptor Calcium FLIPR Antagonist Assay
The cells are plated in 384 well black plates (10′000 cells per well). […] After washing, the cells are transferred to the FLIPR. The test compounds are added at different concentrations […]) in HBSS in the presence of 0.1% BSA and changes in fluorescence are recorded (indication of agonism). The probing agonist is added 20-30 minutes afterwards to the wells at a concentration giving 80% of the maximal activity (EC80). After each addition, time points are collected as follows: 20 time points (2 seconds) before the addition of the agonist (Fmin) and 60 time points (1 or 2 seconds) after the addition of the probing agonist. This allows the determination of the maximal fluorescence (Fmax). The ratio (Fmax-Fmin)/Fmin is plotted against the log of the concentration of the test compounds and the IC50 (relative antagonism) is calculated using the XLfit-4 software. […] A concentration-response curve of the probing agonist is determined on each plate in parallel.

T1 sequence (P21453 whole entry): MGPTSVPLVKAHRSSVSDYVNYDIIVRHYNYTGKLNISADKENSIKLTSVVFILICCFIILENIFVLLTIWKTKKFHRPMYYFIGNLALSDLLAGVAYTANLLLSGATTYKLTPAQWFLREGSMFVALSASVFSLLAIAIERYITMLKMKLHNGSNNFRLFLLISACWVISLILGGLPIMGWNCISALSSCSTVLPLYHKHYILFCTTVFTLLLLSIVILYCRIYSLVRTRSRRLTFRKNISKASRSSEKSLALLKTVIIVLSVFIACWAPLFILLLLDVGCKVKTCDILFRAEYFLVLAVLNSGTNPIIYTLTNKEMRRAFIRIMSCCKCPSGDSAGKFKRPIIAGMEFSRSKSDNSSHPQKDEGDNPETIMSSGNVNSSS

Structure (SMILES) | IC50
Cc1cc(C(C)Nc2cccc(-c3ccc(C(=O)N[C@@H](C)C(=O)O)c(Cl)c3)c2)cc(C)c1Cl (stereo partly drawn) [Example 52, (S)-2-({3-Chloro-3′-[1-(4-chloro-3,5-dimethyl-phenyl)-ethylamino]-biphenyl-4-carbonyl}-amino)-propionic acid] | 1 nM
Cc1cc(C(C)Nc2cccc(-c3ccc(C(=O)N(C)[C@@H](C)C(=O)O)c(Cl)c3)c2)cc(C)c1Cl (stereo partly drawn) [Example 53, (S)-2-({3-Chloro-3′-[1-(4-chloro-3,5-dimethyl-phenyl)-ethylamino]-biphenyl-4-carbonyl}-methyl-amino)-propionic acid] | 5 nM
Cc1cc(C(C)Nc2cccc(-c3ccc(C(=O)N(C)[C@@H](C)C(=O)O)c(F)c3)c2)cc(C)c1Cl (stereo partly drawn) [Example 55, (S)-2-({3′-[1-(4-Chloro-3,5-dimethyl-phenyl)-ethylamino]-3-fluoro-biphenyl-4-carbonyl}-methyl-amino)-propionic acid] | 9 nM
Cc1cc(C(C)Nc2cccc(-c3cc(F)c(C(=O)N[C@@H](C)C(=O)O)c(F)c3)c2)cc(C)c1Cl (stereo partly drawn) [Example 56, (S)-2-({3′-[1-(4-Chloro-3,5-dimethyl-phenyl)-ethylamino]-3,5-difluoro-biphenyl-4-carbonyl}-amino)-propionic acid] | 1 nM
Cc1cc(C(C)Nc2cccc(-c3cc(F)c(C(=O)N(C)[C@@H](C)C(=O)O)c(F)c3)c2)cc(C)c1Cl (stereo partly drawn) [Example 57, (S)-2-({3′-[1-(4-Chloro-3,5-dimethyl-phenyl)-ethylamino]-3,5-difluoro-biphenyl-4-carbonyl}-methyl-amino)-propionic acid] | 6 nM
CCC(Nc1cccc(-c2ccc(C(=O)N(C)[C@@H](C)C(=O)O)c(C)c2)c1)c1ccc(Cl)c(C)c1 (stereo partly drawn) [Example 58, (S)-2-({3′-[1-(4-Chloro-3-methyl-phenyl)-propylamino]-3-methyl-biphenyl-4-carbonyl}-methyl-amino)-propionic acid] | 2 nM
Cc1cc(-c2cccc(NC(C)c3cc(C)c(Cl)c(C)c3)c2)ccc1C(=O)N(C)[C@@H](C)C(=O)O (stereo partly drawn) [Example 59, (S)-2-({3′-[1-(4-Chloro-3,5-dimethyl-phenyl)-ethylamino]-3-methyl-biphenyl-4-carbonyl}-methyl-amino)-propionic acid] | 3 nM
CCC(Nc1cccc(-c2ccc(C(=O)N[C@@H](C)C(=O)O)c(Cl)c2)c1)c1ccc(Cl)c(C)c1 (stereo partly drawn) [Example 60, (S)-2-({3-Chloro-3′-[1-(4-chloro-3-methyl-phenyl)-propylamino]-biphenyl-4-carbonyl}-amino)-propionic acid] | 1 nM
CCC(Nc1cccc(-c2ccc(C(=O)N(C)[C@@H](C)C(=O)O)c(Cl)c2)c1)c1ccc(Cl)c(C)c1 (stereo partly drawn) [Example 61, (S)-2-({3-Chloro-3′-[1-(4-chloro-3-methyl-phenyl)-propylamino]-biphenyl-4-carbonyl}-methyl-amino)-propionic acid] | 1 nM
Cc1cc(C(C)Nc2cccc(-c3ccc(C(=O)N[C@@H](C)C(=O)O)c(C(F)(F)F)c3)c2)ccc1Cl (stereo partly drawn) [Example 62, (S)-2-({3′-[1-(4-Chloro-3-methyl-phenyl)-ethylamino]-3-trifluoromethyl-biphenyl-4-carbonyl}-amino)-propionic acid] | 1 nM
Cc1cc(C(C)Nc2cccc(-c3ccc(C(=O)N(C)[C@@H](C)C(=O)O)c(C(F)(F)F)c3)c2)ccc1Cl (stereo partly drawn) [Example 63, (S)-2-({3′-[1-(4-Chloro-3-methyl-phenyl)-ethylamino]-3-trifluoromethyl-biphenyl-4-carbonyl}-methyl-amino)-propionic acid] | 2 nM
Cc1cc(C(C)Nc2cccc(-c3ccc(C(=O)N[C@@H](C)C(=O)O)c(C(F)(F)F)c3)c2)cc(C)c1Cl (stereo partly drawn) [Example 64, (S)-2-({3′-[1-(4-Chloro-3,5-dimethyl-phenyl)-ethylamino]-3-trifluoromethyl-biphenyl-4-carbonyl}-amino)-propionic acid] | 1 nM
Cc1cc(C(C)Nc2cccc(-c3ccc(C(=O)N(C)[C@@H](C)C(=O)O)c(C(F)(F)F)c3)c2)cc(C)c1Cl (stereo partly drawn) [Example 65, (S)-2-({3′-[1-(4-Chloro-3,5-dimethyl-phenyl)-ethylamino]-3-trifluoromethyl-biphenyl-4-carbonyl}-methyl-amino)-propionic acid] | 6 nM
CCC(Nc1cccc(-c2ccc(C(=O)N[C@@H](C)C(=O)O)c(C(F)(F)F)c2)c1)c1ccc(Cl)c(C)c1 (stereo partly drawn) [Example 66, (S)-2-({3′-[1-(4-Chloro-3-methyl-phenyl)-propylamino]-3-trifluoromethyl-biphenyl-4-carbonyl}-amino)-propionic acid] | 3 nM
CCC(Nc1cccc(-c2ccc(C(=O)N(C)[C@@H](C)C(=O)O)c(C(F)(F)F)c2)c1)c1ccc(Cl)c(C)c1 (stereo partly drawn) [Example 67, (S)-2-({3′-[1-(4-Chloro-3-methyl-phenyl)-propylamino]-3-trifluoromethyl-biphenyl-4-carbonyl}-methyl-amino)-propionic acid] | 3 nM
Cc1cc(C(C)Nc2cccc(-c3cc(C)c(C(=O)NCC(=O)O)c(C)c3)c2)ccc1Cl (centres unmarked) [Example 68, ({3′-[1-(4-Chloro-3-methyl-phenyl)-ethylamino]-3,5-dimethyl-biphenyl-4-carbonyl}-amino)-acetic acid] | 1 nM
COC[C@H](NC(=O)c1c(C)cc(-c2cccc(NC(C)c3ccc(Cl)c(C)c3)c2)cc1C)C(=O)O (stereo partly drawn) [Example 69, (S)-2-({3′-[1-(4-Chloro-3-methyl-phenyl)-ethylamino]-3,5-dimethyl-biphenyl-4-carbonyl}-amino)-3-methoxy-propionic acid] | 2 nM
Cc1cc(C(C)Nc2cccc(-c3cc(C)c(C(=O)N[C@@H](CCCCN)C(=O)O)c(C)c3)c2)ccc1Cl (stereo partly drawn) [Example 70, (S)-6-Amino-2-({3′-[1-(4-chloro-3-methyl-phenyl)-ethylamino]-3,5-dimethyl-biphenyl-4-carbonyl}-amino)-hexanoic acid] | 2 nM
Cc1cc(C(C)Nc2cccc(-c3cc(C)c(C(=O)NC4(C(=O)O)CCC4)c(C)c3)c2)ccc1Cl (centres unmarked) [Example 72, 1-({3′-[1-(4-Chloro-3-methyl-phenyl)-ethylamino]-3,5-dimethyl-biphenyl-4-carbonyl}-amino)-cyclobutanecarboxylic acid] | 2 nM
Cc1cc(C(C)Nc2cccc(-c3ccc(C(=O)N(C)[C@@H](C)C(=O)O)c(C)c3)c2)ccc1Cl (some centres unmarked) [Example 76] | 3 nM
Cc1cc(-c2cccc(NC(C)c3ccc(Cl)c(Cl)c3)c2)ccc1C(=O)N(C)[C@@H](C)C(=O)O (stereo partly drawn) [Example 78, (S)-2-({3′-[1-(3,4-Dichloro-phenyl)-ethylamino]-3-methyl-biphenyl-4-carbonyl}-methyl-amino)-propionic acid] | 7 nM
Cc1cc(C(C)Nc2cccc(-c3cc(C)c(C(=O)NC4(C(=O)O)CNC4)c(C)c3)c2)ccc1Cl (centres unmarked) [Example 79, 3-({3′-[1-(4-Chloro-3-methyl-phenyl)-ethylamino]-3,5-dimethyl-biphenyl-4-carbonyl}-amino)-azetidine-3-carboxylic acid] | 2 nM
Cc1cc(C(C)N(C)c2cccc(-c3cc(C)c(C(=O)N[C@@H](C)C(=O)O)c(C)c3)c2)ccc1Cl (stereo partly drawn) [Example 80, (S)-2-[(3′-{[1-(4-Chloro-3-methyl-phenyl)-ethyl]-methyl-amino}-3,5-dimethyl-biphenyl-4-carbonyl)-amino]-propionic acid] | 4 nM
